Results taken from publication PMC7377239, “Cardiovascular Effects of Polychlorinated Biphenyls and Their Major Metabolites” (Environmental Health Perspectives, 2020).
Read-outs that look alike come from different tables or passages of the source.

Key:
HUVECs [1] = experiment: High-content imaging cytotoxicity in HUVECs, 24 h; format: cell-based, human; details: Homo sapiens, HUVEC, 24 h, HUVECs; for viability at 0.01 µM / activity at 0.01 µM / viability at 0.1 µM / activity at 0.1 µM / viability at 1 µM / activity at 1 µM / viability at 10 µM / activity at 10 µM / viability at 100 µM / activity at 100 µM: 0.00 µM = 100.00; for viability at 0.1 µM / activity at 0.1 µM: 0.10 µM; for minimal effective concentration: top concentration 100.00 µM
Outline: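 HUVECs (passages 1–5) grown to monolayer over 3–5 d, then exposed 24 h at 37°C, 5% CO2; stained with Hoechst 33342, MitoTracker Orange and calcein AM and imaged at 10×. Readouts normalized to 0.5% DMSO vehicle, four-parameter logistic fit; POD at one-SD cutoff, 100μM assigned when no response.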

HUVECs [2] = experiment: Tube formation (tubulogenesis) assay in HUVECs, 18 h; format: cell-based, human; details: Homo sapiens, HUVEC, 18 h, HUVECs; for activity at 0.1 µM: 0.10 µM; for minimal effective concentration: top concentration 100.00 µM
Outline: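 HUVECs (passage 1–5) seeded on reduced-growth-factor basement membrane and exposed to compounds overnight at 37°C, 5% CO2, in 2× maintenance medium with 12.5 ng/mL VEGF; 0.5% DMSO vehicle. Calcein AM-stained tube networks imaged and analysed; vehicle-normalized readouts fit to four-parameter logistic, POD set at one SD of vehicle means.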

[3] = 24 hr, read-out: huvec.cyto.24hr
[4] = 24 hr, read-out: huvec.mito.24hr
[5] = 24 hr, read-out: huvec.mitoint.24hr
[6] = 24 hr, read-out: huvec.nma.24hr
[7] = 24 hrs, read-out: huvec.tc.24hrs
[8] = 0.00 µM = 100.00, read-out: huvec.mtl.18hr
[9] = 0.00 µM = 100.00, read-out: huvec.tlps.18hr
[10] = 0.00 µM = 100.00, read-out: huvec.tta.18hr
[11] = 0.00 µM = 100.00, read-out: huvec.ttl.18hr

## Oc1cc(Cl)cc(-c2cccc(Cl)c2)c1 [5-OH PCB 11]
HUVECs [1]; [3]
  viability at 0.01 µM: 94.6%
  viability at 0.1 µM: 87.5%
  viability at 1 µM: 93.9%
  viability at 10 µM: 35.9%
  viability at 100 µM: 24.1%
HUVECs [1]; [4]
  activity at 0.01 µM: 93.1%
  activity at 0.1 µM: 86.8%
  activity at 1 µM: 93.3%
  activity at 10 µM: 29.1%
  activity at 100 µM: 13.2%
HUVECs [1]; [5]
  activity at 0.01 µM: 89.8%
  activity at 0.1 µM: 107%
  activity at 1 µM: 101%
  activity at 10 µM: 17.5%
  activity at 100 µM: 12%
HUVECs [1]; [6]
  activity at 0.01 µM: 98.5%
  activity at 0.1 µM: 111%
  activity at 1 µM: 99.7%
  activity at 10 µM: 69.5%
  activity at 100 µM: 77.5%
HUVECs [1]; 24 hr, read-out: huvec.cyto.24hr POD
  minimal effective concentration: 0.95 µM
HUVECs [1]; 24 hr, read-out: huvec.mito.24hr POD
  minimal effective concentration: 0.84 µM
HUVECs [1]; 24 hr, read-out: huvec.mitoint.24hr POD
  minimal effective concentration: 3.3 µM
HUVECs [1]; 24 hr, read-out: huvec.nma.24hr POD
  minimal effective concentration: 1.22 µM
HUVECs [1]; [7]
  viability at 0.01 µM: 94.6%
  viability at 0.1 µM: 87.5%
  viability at 1 µM: 93.9%
  viability at 10 µM: 36%
  viability at 100 µM: 26.8%
HUVECs [1]; 24 hrs, read-out: huvec.tc.24hrs POD
  minimal effective concentration: 0.95 µM
HUVECs [2]; [8]
  activity at 0.01 µM: 117%
  activity at 0.1 µM: 121%
  activity at 1 µM: 103%
  activity at 10 µM: 81.1%
  activity at 100 µM: 63%
HUVECs [2]; [9]
  activity at 0.01 µM: 148%
  activity at 0.1 µM: 186%
  activity at 1 µM: 111%
  activity at 10 µM: 102%
  activity at 100 µM: 38.8%
HUVECs [2]; [10]
  activity at 0.01 µM: 116%
  activity at 0.1 µM: 123%
  activity at 1 µM: 113%
  activity at 10 µM: 76.5%
  activity at 100 µM: 111%
HUVECs [2]; [11]
  activity at 0.01 µM: 106%
  activity at 0.1 µM: 106%
  activity at 1 µM: 104%
  activity at 10 µM: 67.6%
  activity at 100 µM: 94.6%
HUVECs [2]; read-out: huvec.mtl.18hr POD
  minimal effective concentration: 6.98 µM
HUVECs [2]; read-out: huvec.tlps.18hr POD
  minimal effective concentration: 100 µM
HUVECs [2]; read-out: huvec.tta.18hr POD
  minimal effective concentration: 100 µM
HUVECs [2]; read-out: huvec.ttl.18hr POD
  minimal effective concentration: 32.7 µM
